The values that follow come from patent US11564909B2, “Methods and compositions for oral pilocarpine liquid” (ROMEG Therapeutics LLC, priority 2020, dated 2023).

One series in a line: in vitro. The note with it: human, Caco-2. The method, then: (§1) The objective of this study was to evaluate the bidirectional Caco-2 permeability of three formulations of test article Pilocarpine at three pH levels (pH 5.7, 6.5, 7.4) using calibration curve quantitation.
(§2) Samples were analyzed by LC/MS/MS using an Waters Xevo TQ mass spectrometer coupled with an Acuity HPLC and a CTC PAL chilled autosampler, all controlled by MassLynx software (Waters). After separation on a C18 reverse phase (Waters Acquity HSS T3 2.1×50 mm […]) using an acetonitrile-water gradient system, peaks were analyzed by mass spectrometry (MS) using ESI ionization in MRM mode.
(§3) Tables 16-17 show the HPLC gradients used and the experiment conditions of the Caco-2 permeability test, respectively.
(§4) Caco-2 cells grown in tissue culture flasks were trypsinized, suspended in medium, and the suspensions were applied to wells of a Millipore 96 well plate. The cells were allowed to grow and differentiate for three weeks, feeding at 2-day intervals.
(§5) For Apical to Basolateral (A→B) permeability, the test article was added to the apical (A) side and amount of permeation was determined on the basolateral (B) side; for Basolateral to Apical (B→A) permeability, the test article was added to the B side and the amount of permeation was determined on the A side. […] Caco-2 cells were incubated with test articles in these buffers for 2 hours, and at the end of the assay, donor and receiver side solution samples were collected, quenched by 100% methanol containing an internal standard and centrifuged at 5000 rpm for 10 minutes at 4° C. Following centrifugation, the supernatant for donor and receiver side samples were analyzed by LC-MS/MS.
(§6) Data is expressed as permeability (Papp):
(§7) [formula] dQ/dt is rate of permeation, C0 is initial concentration of test article, and A is the area of monolayer.
(§8) In bidirectional permeability studies, Efflux Ratio (Re) is also calculated:
(§9) [formula] Re>2 indicates a potential substrate for P-gp or other active efflux transporters. The donor, dosing and receiver side sample concentrations were calculated based on the calibration curve prepared in buffer matrix in the range of 1-20,000 nM.

In the next series the test system is Caco-2 cells. The experiment in a line: in vitro. The method, then: as §1, §2, §3, §4, §5, §6, §7, §8, §9

What is called Papp A→B is how fast a substance crosses the layer from the apical side. Read a high Papp A→B as ready permeation. The term Papp B→A denotes the apparent permeability from the basolateral to the apical side of a cell layer. As usually defined, the efflux ratio is a quotient of directional permeabilities that is used to spot active efflux.

Take `COCCc1ccc(OCC(O)CNC(C)C)cc1` (stereo not drawn) [Metoprolol]: in “in vitro”, the Papp A→B at 2 h, 10 μM stood at 19.4 ×10⁻⁶ cm/s; the Papp B→A at 2 h, 10 μM turned out to be 42.7 ×10⁻⁶ cm/s; the efflux ratio at 2 h, 10 μM is 2.22. In addition, the “Comments (permeability class)” value in the series on Caco-2 cells is given as “High permeability”.

As to `CNC(=C[N+](=O)[O-])NCCSCc1ccc(CN(C)C)o1` [Ranitidine], in the series “in vitro”, the Papp A→B at 2 h, 10 μM was found to be 0.585 ×10⁻⁶ cm/s; the Papp B→A at 2 h, 10 μM came out at 3.13 ×10⁻⁶ cm/s; the efflux ratio at 2 h, 10 μM was found to be 5.41. In addition, the “Comments (permeability class)” value with Caco-2 cells is recorded as “Low permeability”.

Consider `CC[C@@H]1C(=O)OC[C@@H]1Cc1cncn1C` [pilocarpine, (3S,4R)-3-Ethyl-4-((1-methyl-1H-imidazol-5-yl)methyl)dihydrofuran-2(3H)-one], for which the BCS permeability classification result with Caco-2 cells is on record as “high permeability”.
